Consider 16 compounds from patent US20140343000A1 (priority 2011, published 2014).

The EC50 is the midpoint of the concentration-response curve.

Each structure is given as a SMILES string. Counter-ions that a name gives are not always drawn.

One test has as its system recombinant NL4-3 virus (Renilla luciferase in nef, Gag P373S; NLRluc) in MT-2 cells. As to the kind of experiment: whole plant or invertebrate. To be noted: Renilla, NL43. The test is classed as cell-based, HIV. In a few lines: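 Luciferase signal is the read-out: after 4-5 days of infection in the presence of serially diluted compound, MT-2 cells are lysed with a premix of lysis buffer, luciferase reagent and Stop & Glo substrate, and luminescence is read immediately.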
In the case of `C=C(C)[C@@H]1CC[C@]2(NCCN3CCC(C(=O)N(C)C)CC3)CC[C@]3(C)[C@H](CC[C@@H]4[C@@]5(C)CC=C(c6ccc(C(=O)O)cc6)C(C)(C)[C@@H]5CC[C@]43C)[C@@H]12` [Example 171, 4-((1R,3aS,5aR,5bR,7aR,11aS,11bR,13aR,13bR)-3a-(2-(4-(dimethylcarbamoyl)piperidin-1-yl)ethylamino)-5a,5b,8,8,11a-pentamethyl-1-(prop-1-en-2-yl)-2,3,3a,4,5,5a,5b,6,7,7a,8,11,11a,11b,12,13,13a,13b-octadecahydro-1H-cyclopenta[a]chrysen-9-yl)benzoic acid], the EC50 was below 100 nM.

`C=C(C)[C@@H]1CC[C@]2(N3CC3)CC[C@]3(C)[C@H](CC[C@@H]4[C@@]5(C)CC=C(c6ccc(C(=O)O)cc6)C(C)(C)[C@@H]5CC[C@]43C)[C@@H]12` [Example 173, 4-((1R,3aS,5aR,5bR,7aR,11aS,11bR,13bR)-3a-(aziridin-1-yl)-5a,5b,8,8,11a-pentamethyl-1-(prop-1-en-2-yl)-2,3,3a,4,5,5a,5b,6,7,7a,8,11,11a,11b,12,13,13a,13b-octadecahydro-1H-cyclopenta[a]chrysen-9-yl)benzoic acid]: the EC50 was below 100 nM.

The test is the same for the next values; noted with them: Renilla, NL43, luciferase activity in cells infected for 4-5 days with NLRluc recombinants, serial dilutions of inhibitor; class symbols (key in Table 1); read-out: EC50.
In the case of `C=C(C)[C@@H]1CC[C@]2(NCCN3CCC(C(=O)O)CC3)CC[C@]3(C)[C@H](CC[C@@H]4[C@@]5(C)CC=C(c6ccc(C(=O)O)cc6)C(C)(C)[C@@H]5CC[C@]43C)[C@@H]12` [Example 170, 1-(2-(((1R,3aS,5aR,5bR,7aR,11aS,11bR,13aR,13bR)-9-(4-carboxyphenyl)-5a,5b,8,8,11a-pentamethyl-1-(prop-1-en-2-yl)-2,3,3a,4,5,5a,5b,6,7,7a,8,11,11a,11b,12,13,13a,13b-octadecahydro-1H-cyclopenta[a]chrysen-3a-yl)amino)ethyl)piperidine-4-carboxylic acid], the EC50 was below 100 nM.

Take `C=C(C)[C@@H]1CC[C@]2(NCCN3CCC(F)(F)CC3)CC[C@]3(C)[C@H](CC[C@@H]4[C@@]5(C)CC=C(c6ccc(C(=O)O)cc6)C(C)(C)[C@@H]5CC[C@]43C)[C@@H]12` [Example 172]: the concentration for a half-maximal effect (EC50) was below 100 nM.

As to `C=C(C)[C@@H]1CC[C@]2(N(CCN3CCS(=O)(=O)CC3)C(C)=O)CC[C@]3(C)[C@H](CC[C@@H]4[C@@]5(C)CC=C(c6ccc(C(=O)O)cc6)C(C)(C)[C@@H]5CC[C@]43C)[C@@H]12` [Example 178, 4-((1R,3aS,5aR,5bR,7aR,11aS,11bR,13aR,13bR)-3a-(acetyl(2-(1,1-dioxido-4-thiomorpholinyl)ethyl)amino)-1-isopropenyl-5a,5b,8,8,11a-pentamethyl-2,3,3a,4,5,5a,5b,6,7,7a,8,11,11a,11b,12,13,13a,13b-octadecahydro-1H-cyclopenta[a]chrysen-9-yl)benzoic acid], the half-maximal effective concentration (EC50) was below 100 nM.

Take `C=C(C)[C@@H]1CC[C@]2(NCCF)CC[C@]3(C)[C@H](CC[C@@H]4[C@@]5(C)CC=C(c6ccc(C(=O)O)cc6)C(C)(C)[C@@H]5CC[C@]43C)[C@@H]12` [Example 179, 4-((1R,3aS,5aR,5bR,7aR,11aS,11bR,13aR,13bR)-3a-((2-fluoroethyl)amino)-5a,5b,8,8,11a-pentamethyl-1-(prop-1-en-2-yl)-2,3,3a,4,5,5a,5b,6,7,7a,8,11,11a,11b,12,13,13a,13b-octadecahydro-1H-cyclopenta[a]chrysen-9-yl)benzoic acid]: the concentration for a half-maximal effect (EC50) is below 100 nM.

Regarding `C=C(C)[C@@H]1CC[C@]2(NCC)CC[C@]3(C)[C@H](CC[C@@H]4[C@@]5(C)CC=C(c6ccc(C(=O)O)cc6)C(C)(C)[C@@H]5CC[C@]43C)[C@@H]12` [Example 180, 4-((1R,3aS,5aR,5bR,7aR,11aS,11bR,13aR,13bR)-3a-(ethylamino)-5a,5b,8,8,11a-pentamethyl-1-(prop-1-en-2-yl)-2,3,3a,4,5,5a,5b,6,7,7a,8,11,11a,11b,12,13,13a,13b-octadecahydro-1H-cyclopenta[a]chrysen-9-yl)benzoic acid], the EC50 is below 100 nM.

`C=C(C)[C@@H]1CC[C@]2(NCC(C)C)CC[C@]3(C)[C@H](CC[C@@H]4[C@@]5(C)CC=C(c6ccc(C(=O)O)cc6)C(C)(C)[C@@H]5CC[C@]43C)[C@@H]12` [Example 181, 4-((1R,3aS,5aR,5bR,7aR,11aS,11bR,13aR,13bR)-3a-(isobutylamino)-5a,5b,8,8,11a-pentamethyl-1-(prop-1-en-2-yl)-2,3,3a,4,5,5a,5b,6,7,7a,8,11,11a,11b,12,13,13a,13b-octadecahydro-1H-cyclopenta[a]chrysen-9-yl)benzoic acid]: the EC50 is below 100 nM.

For `C=C(C)[C@@H]1CC[C@]2(NCCC(F)(F)F)CC[C@]3(C)[C@H](CC[C@@H]4[C@@]5(C)CC=C(c6ccc(C(=O)O)cc6)C(C)(C)[C@@H]5CC[C@]43C)[C@@H]12` [Example 182, 4-((1R,3aS,5aR,5bR,7aR,11aS,11bR,13aR,13bR)-5a,5b,8,8,11a-pentamethyl-1-(prop-1-en-2-yl)-3a-((3,3,3-trifluoropropyl)amino)-2,3,3a,4,5,5a,5b,6,7,7a,8,11,11a,11b,12,13,13a,13b-octadecahydro-1H-cyclopenta[a]chrysen-9-yl)benzoic acid], the concentration giving a half-maximal response (EC50) is above 100 nM.

Turning to `C=C(C)[C@@H]1CC[C@]2(Nc3nc(C)c(C)s3)CC[C@]3(C)[C@H](CC[C@@H]4[C@@]5(C)CC=C(c6ccc(C(=O)O)cc6)C(C)(C)[C@@H]5CC[C@]43C)[C@@H]12` [Example 183, 4-((1R,3aS,5aR,5bR,7aR,11aS,11bR,13aR,13bR)-3a-(4,5-dimethylthiazol-2-ylamino)-5a,5b,8,8,11a-pentamethyl-1-(prop-1-en-2-yl)-2,3,3a,4,5,5a,5b,6,7,7a,8,11,11a,11b,12,13,13a,13b-octadecahydro-1H-cyclopenta[a]chrysen-9-yl)benzoic acid], the concentration for a half-maximal effect (EC50) was below 100 nM.

In the case of `C=C(C)[C@@H]1CC[C@]2(Nc3nc(CC)cs3)CC[C@]3(C)[C@H](CC[C@@H]4[C@@]5(C)CC=C(c6ccc(C(=O)O)cc6)C(C)(C)[C@@H]5CC[C@]43C)[C@@H]12` [Example 184B, 4-((1R,3aS,5aR,5bR,7aR,11aS,11bR,13aR,13bR)-3a-(4-ethylthiazol-2-ylamino)-5a,5b,8,8,11a-pentamethyl-1-(prop-1-en-2-yl)-2,3,3a,4,5,5a,5b,6,7,7a,8,11,11a,11b,12,13,13a,13b-octadecahydro-1H-cyclopenta[a]chrysen-9-yl)benzoic acid], the EC50 is below 100 nM.

Still in this test, the particulars now being: Renilla, NL43, luciferase activity in cells infected for 4-5 days with NLRluc recombinants, serial dilutions of inhibitor; numeric values; read-out: EC50.
In the case of `C=C(C)[C@@H]1CC[C@]2(NCC3CCCN(C(=O)OC(C)(C)C)C3)CC[C@]3(C)[C@H](CC[C@@H]4[C@@]5(C)CC=C(c6ccc(C(=O)O)cc6)C(C)(C)[C@@H]5CC[C@]43C)[C@@H]12` (stereo partly drawn) [Example 174, 4-((1R,3aS,5aR,5bR,7aR,11aS,11bR,13aR,13bR)-3a-((1-(tert-butoxycarbonyl)piperidin-3-yl)methylamino)-5a,5b,8,8,11a-pentamethyl-1-(prop-1-en-2-yl)-2,3,3a,4,5,5a,5b,6,7,7a,8,11,11a,11b,12,13,13a,13b-octadecahydro-1H-cyclopenta[a]chrysen-9-yl)benzoic acid], the half-maximal effective concentration (EC50) is 300 nM.

Take `C=C(C)[C@@H]1CC[C@]2(NCC3CCCNC3)CC[C@]3(C)[C@H](CC[C@@H]4[C@@]5(C)CC=C(c6ccc(C(=O)O)cc6)C(C)(C)[C@@H]5CC[C@]43C)[C@@H]12` (stereo partly drawn) [Example 175, 4-((1R,3aS,5aR,5bR,7aR,11aS,11bR,13aR,13bR)-5a,5b,8,8,11a-pentamethyl-3a-(piperidin-3-ylmethylamino)-1-(prop-1-en-2-yl)-2,3,3a,4,5,5a,5b,6,7,7a,8,11,11a,11b,12,13,13a,13b-octadecahydro-1H-cyclopenta[a]chrysen-9-yl)benzoic acid]: the EC50 was 10 nM.

In the case of `C=C(C)[C@@H]1CC[C@]2(N(C)C)CC[C@]3(C)[C@H](CC[C@@H]4[C@@]5(C)CC=C(c6ccc(C(=O)O)cc6)C(C)(C)[C@@H]5CC[C@]43C)[C@@H]12` [Example 177, 4-((1R,3aS,5aR,5bR,7aR,11aS,11bR,13aR,13bR)-3a-(dimethylamino)-5a,5b,8,8,11a-pentamethyl-1-(prop-1-en-2-yl)-2,3,3a,4,5,5a,5b,6,7,7a,8,11,11a,11b,12,13,13a,13b-octadecahydro-1H-cyclopenta[a]chrysen-9-yl)benzoic acid], the half-maximal effective concentration (EC50) was found to be 9 nM.

For the compound `C=C(C)[C@@H]1CC[C@]2(N(CC(=O)CC)c3nc(CC)cs3)CC[C@]3(C)[C@H](CC[C@@H]4[C@@]5(C)CC=C(c6ccc(C(=O)O)cc6)C(C)(C)[C@@H]5CC[C@]43C)[C@@H]12` [Example 184A, 4-((1R,3aS,5aR,5bR,7aR,11aS,11bR,13aR,13bR)-3a-((4-ethylthiazol-2-yl)(2-oxobutyl)amino)-5a,5b,8,8,11a-pentamethyl-1-(prop-1-en-2-yl)-2,3,3a,4,5,5a,5b,6,7,7a,8,11,11a,11b,12,13,13a,13b-octadecahydro-1H-cyclopenta[a]chrysen-9-yl)benzoic acid], the EC50 came to 390 nM.

Still in this test, the particulars now being: luciferase activity in cells infected for 4-5 days with NLRluc recombinants, serial dilutions of inhibitor; class symbols (key in Table 1); read-out: EC50.
Turning to `C=C(C)[C@@H]1CC[C@]2(NC)CC[C@]3(C)[C@H](CC[C@@H]4[C@@]5(C)CC=C(c6ccc(C(=O)O)cc6)C(C)(C)[C@@H]5CC[C@]43C)[C@@H]12` [Example 176, 4-((1R,3aS,5aR,5bR,7aR,11aS,11bR,13aR,13bR)-5a,5b,8,8,11a-pentamethyl-3a-(methylamino)-1-(prop-1-en-2-yl)-2,3,3a,4,5,5a,5b,6,7,7a,8,11,11a,11b,12,13,13a,13b-octadecahydro-1H-cyclopenta[a]chrysen-9-yl)benzoic acid, HCl], the concentration giving a half-maximal response (EC50) is below 100 nM.
